What all share (format): in vivo
In experiment [1] the test system is barnyardgrass (Echinochloa crus-galli). The experiment in a line: Test A postemergence, barnyardgrass. The note with it: Echinochloa crus-galli, post-emergence, 240 h, Postemergence, 0 to 100 scale (0 no effect, 100 complete control); for pest or weed control at 125 g/ha: 125 g ai/ha; for pest or weed control at 500 g/ha: 500 g ai/ha. In short, it runs like this:
(§1)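 Formulated with a surfactant in a non-phytotoxic solvent, compounds are applied to loam–sand pots, either to bare soil immediately after seeding (preemergence) or to seedlings of 2 to 10 cm bearing one to two leaves (postemergence).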

For another experiment, the system named is corn (Zea mays). The experiment in a line: Test A postemergence, corn. The note with it: Zea mays, post-emergence, 240 h, Postemergence, 0 to 100 scale (0 no effect, 100 complete control); for Corn plant response rating (crop injury, 0 = no effect, 100 = complete kill) at 125 g/ha: 125 g ai/ha; for Corn plant response rating (crop injury, 0 = no effect, 100 = complete kill) at 500 g/ha / plant injury at 500 g/ha: 500 g ai/ha; for plant injury at 500 g/ha: visual injury vs untreated controls after approx. 10 days, read-out: Corn plant response rating. Put shortly: (§2)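 Preemergence: seeded pots of loam plus sand received a directed soil spray. Postemergence: seedlings at one to two leaves, 2 to 10 cm high, were oversprayed. Each compound was formulated in a non-phytotoxic solvent mix that included a surfactant.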

Another experiment concerns kochia (Bassia scoparia). The experiment is described as follows: Test A postemergence, kochia. The note with it: Bassia scoparia, post-emergence, 240 h, Postemergence, 0 to 100 scale (0 no effect, 100 complete control); for pest or weed control at 125 g/ha: 125 g ai/ha; for pest or weed control at 500 g/ha: 500 g ai/ha. Put shortly:
as §2

The subject of experiment [2] is pigweed (Amaranthus retroflexus). The experiment in a line: Test A preemergence, pigweed. The note with it: Amaranthus retroflexus, pre-emergence, 240 h; for pest or weed control at 125 g/ha: 125 g ai/ha; for pest or weed control at 500 g/ha: 500 g ai/ha. Put shortly:
as §1

Setting [3] is: visual injury approx. 10 days, read-out: Plant response rating, Barnyardgrass.
[4] abbreviates: visual injury, approx. 10 days, read-out: Plant response rating, Barnyardgrass.
Where [5] appears, read: visual injury approx. 10 days, read-out: Plant response rating, Kochia.
[6] abbreviates: visual injury, approx. 10 days, read-out: Plant response rating, Kochia.
Where [7] appears, read: visual injury on 0 to 100 scale (0 no effect, 100 complete control), approximately 10 days, read-out: Pigweed plant response rating.
[8] abbreviates: 0 to 100 scale (0 no effect, 100 complete control), read-out: Plant response rating, Pigweed.
Setting [9] is: visual injury vs untreated controls after approx. 10 days, read-out: Barnyardgrass plant response rating.
[10] abbreviates: visual injury vs untreated controls after approx. 10 days, read-out: Kochia plant response rating.
Where [11] appears, read: read-out: Plant response rating, Barnyardgrass.
[12] abbreviates: read-out: Plant response rating, Kochia.
The mark [13] stands for this setting: visual injury, 0 to 100 scale (0 no effect, 100 complete control), approx. 10 days, read-out: Plant response rating, Pigweed.

SMILES strings stand for the structures. Where two headings read alike, the source gives them in different places.

For the molecule `Cc1cc(Cl)c(NS(=O)(=O)C(F)(F)F)cc1C(=O)N1CCOCC1` [Compound 16, N-[2-Chloro-4-methyl-5-(4-morpholinylcarbonyl)phenyl]-1,1,1-trifluoromethanesulfonamide], the pest or weed control at 125 g/ha was found to be 60% in experiment [1] (setting [3]), 40% with kochia (Bassia scoparia) (setting [5]) and 100% in experiment [2] (setting [7]). The values for the pest or weed control at 500 g/ha (in experiment [1] (setting [4]); in the experiment on kochia (Bassia scoparia) (setting [6]); in experiment [2] (setting [8])) were 90%, 80% and 100%, respectively. Moreover, the Corn plant response rating (crop injury, 0 = no effect, 100 = complete kill) at 125 g/ha in the experiment with corn (Zea mays) (visual injury approx. 10 days) came to 0%. The molecule further displayed a Corn plant response rating (crop injury, 0 = no effect, 100 = complete kill) at 500 g/ha with corn (Zea mays) (visual injury, approx. 10 days) of 50%.
In the case of `Cc1cc(Cl)c(NS(=O)(=O)C(F)(F)F)cc1C(=O)N1CCCCC1` [Compound 18, N-[2-Chloro-4-methyl-5-(1-piperidinylcarbonyl)phenyl]-1,1,1-trifluoromethanesulfonamide], the pest or weed control at 125 g/ha in experiment [1] (setting [3]) is 0%; in the experiment on kochia (Bassia scoparia) (setting [5]), 10%; in experiment [2] (setting [7]) it was 100%. Moreover, the figures for the pest or weed control at 500 g/ha (in experiment [1] (setting [4]); with kochia (Bassia scoparia) (setting [6]); in experiment [2] (setting [8])) were 70%, 40% and 100%, respectively. In the experiment with corn (Zea mays) (visual injury approx. 10 days), this molecule returned a Corn plant response rating (crop injury, 0 = no effect, 100 = complete kill) at 125 g/ha of 0%. The Corn plant response rating (crop injury, 0 = no effect, 100 = complete kill) at 500 g/ha in the experiment with corn (Zea mays) (visual injury, approx. 10 days) was found to be 0%.
Consider `CCc1cc(-c2cc(NS(=O)(=O)C(F)(F)F)c(C)cc2C)c(=O)n(C)n1` [Compound 34, N-[5-(6-Ethyl-2,3-dihydro-2-methyl-3-oxo-4-pyridazinyl)-2,4-dimethylphenyl]-1,1,1-trifluoromethanesulfonamide], for which the values for the pest or weed control at 125 g/ha (in experiment [1] (setting [3]); with kochia (Bassia scoparia) (setting [5])) were 0% and 30%, respectively. Further, the results for the pest or weed control at 500 g/ha (in experiment [1] (setting [4]); in the experiment with kochia (Bassia scoparia) (setting [6])) were 0% and 50%, respectively. Besides, the Corn plant response rating (crop injury, 0 = no effect, 100 = complete kill) at 125 g/ha in the experiment on corn (Zea mays) (visual injury approx. 10 days) was found to be 0%. For the same molecule, in the experiment with corn (Zea mays) (visual injury, approx. 10 days), the Corn plant response rating (crop injury, 0 = no effect, 100 = complete kill) at 500 g/ha was 0%.
On to `Cc1cc(C)c(N(COC(=O)C(C)(C)C)S(=O)(=O)C(F)(F)F)cc1C1=NO[C@@H]2CCC[C@H]12` [Compound 100, [[2,4-Dimethyl-5-[(3aR,6aR)-3a,5,6,6a-tetrahydro-4H-cyclopent[d]isoxazol-3-yl]phenyl][(trifluoromethyl)sulfonyl]amino]methyl 2,2-dimethylpropanoate], for which the pest or weed control at 125 g/ha is 80% in experiment [1] (setting [3]), 60% with kochia (Bassia scoparia) (setting [5]) and 70% in experiment [2] (setting [7]). In addition, the pest or weed control at 500 g/ha is 90% in experiment [1] (setting [9]), 90% with kochia (Bassia scoparia) (setting [10]) and 80% in experiment [2] (setting [8]). In addition, the Corn plant response rating (crop injury, 0 = no effect, 100 = complete kill) at 125 g/ha in the experiment with corn (Zea mays) (visual injury approx. 10 days) amounted to 10%. Further, the plant injury at 500 g/ha in the experiment on corn (Zea mays) is 30%.
As for `Cc1cc(C)c(C2=NO[C@@H]3CCC[C@H]23)cc1NS(=O)(=O)C(F)(F)F` [Compound 103, N-[2,4-Dimethyl-5-[(3aR,6aR)-3a,5,6,6a-tetrahydro-4H-cyclopent[d]isoxazol-3-yl]phenyl]-1,1,1-trifluoromethanesulfonamide], the figures for the pest or weed control at 125 g/ha (in experiment [1] (setting [3]); in the experiment on kochia (Bassia scoparia) (setting [5]); in experiment [2] (setting [7])) were 90%, 70% and 100%, respectively. The pest or weed control at 500 g/ha in experiment [1] (setting [9]) worked out at 90%; in the experiment on kochia (Bassia scoparia) (setting [10]) it was 80%; in experiment [2] (setting [8]) it was 100%. This molecule also returned a Corn plant response rating (crop injury, 0 = no effect, 100 = complete kill) at 125 g/ha in the experiment on corn (Zea mays) (visual injury approx. 10 days) of 20%. Also, the plant injury at 500 g/ha with corn (Zea mays) was 70%.
As to `Cc1cc(C)c(C2=NOC3CCOCC23)cc1NS(=O)(=O)C(F)(F)F` (centres unmarked) [Compound 120, N-[2,4-Dimethyl-5-(3a,6,7,7a-tetrahydro-4H-pyrano[3,4-d]isoxazol-3-yl)phenyl]-1,1,1-trifluoromethanesulfonamide], the pest or weed control at 125 g/ha in experiment [1] (setting [3]) came out at 90%; with kochia (Bassia scoparia) (setting [5]), 70%. For the same molecule, the pest or weed control at 500 g/ha (in experiment [1] (setting [9]); with kochia (Bassia scoparia) (setting [10])) was 90% in each case. Also, the Corn plant response rating (crop injury, 0 = no effect, 100 = complete kill) at 125 g/ha in the experiment with corn (Zea mays) (visual injury approx. 10 days) was 0%. For the same molecule, in the experiment on corn (Zea mays), the plant injury at 500 g/ha was determined as 70%.
As to `Cc1cc(C)c(N(COC(=O)C(C)(C)C)S(=O)(=O)C(F)(F)F)cc1C1=NOC2(CCCC2)C1` [Compound 140, [[2,4-Dimethyl-5-(1-oxa-2-azaspiro[4.4]non-2-en-3-yl)phenyl][(trifluoromethyl)sulfonyl]amino]methyl 2,2-dimethylpropanoate], the pest or weed control at 125 g/ha in experiment [1] (setting [3]) was 70%; in the experiment on kochia (Bassia scoparia) (setting [5]) it was 10%; in experiment [2] (setting [7]) it was 0%. The results for the pest or weed control at 500 g/ha (in experiment [1] (setting [9]); in the experiment with kochia (Bassia scoparia) (setting [10]); in experiment [2] (setting [8])) were 90%, 60% and 50%, respectively. Moreover, the Corn plant response rating (crop injury, 0 = no effect, 100 = complete kill) at 125 g/ha with corn (Zea mays) (visual injury approx. 10 days) is 0%. Further, the plant injury at 500 g/ha in the experiment on corn (Zea mays) is 30%.
Consider `Cc1cc(C)c(N(COC(=O)C(C)(C)C)S(=O)(=O)C(F)(F)F)cc1C1=NOC2(CCCCC2)C1` [Compound 159, [[2,4-Dimethyl-5-(1-oxa-2-azaspiro[4.5]dec-2-en-3-yl)phenyl][(trifluoromethyl)sulfonyl]amino]methyl 2,2-dimethylpropanoate], for which the pest or weed control at 125 g/ha in experiment [1] (setting [11]) came out at 30%; in the experiment on kochia (Bassia scoparia) (setting [12]) it was 20%. The pest or weed control at 500 g/ha in experiment [1] (setting [9]) worked out at 80%; with kochia (Bassia scoparia) (setting [10]), 40%. In addition, in the experiment on corn (Zea mays), the Corn plant response rating (crop injury, 0 = no effect, 100 = complete kill) at 125 g/ha was 0%. Also, in the experiment with corn (Zea mays), the plant injury at 500 g/ha was 30%.
As for `Cc1cc(C)c(C2=NOC3(CCCCC3)C2)cc1NS(=O)(=O)C(F)(F)F` [Compound 197, N-[2,4-Dimethyl-5-(1-oxa-2-azaspiro[4.5]dec-2-en-3-yl)phenyl]-1,1,1-trifluoromethanesulfonamide], the Corn plant response rating (crop injury, 0 = no effect, 100 = complete kill) at 125 g/ha in the experiment with corn (Zea mays) is 20%. In addition, the plant injury at 500 g/ha in the experiment on corn (Zea mays) worked out at 80%. For the same molecule, the pest or weed control at 125 g/ha in the experiment with kochia (Bassia scoparia) (setting [12]) stood at 50%; in experiment [2] (setting [13]), 80%. The pest or weed control at 500 g/ha with kochia (Bassia scoparia) (setting [10]) turned out to be 80%; in experiment [2] (setting [8]) it was 100%.
On to `Cc1cc(C)c(C2=NOC3(CCCC3)C2)cc1NS(=O)(=O)C(F)(F)F` [Compound 207, N-[2,4-Dimethyl-5-(1-oxa-2-azaspiro[4.4]non-2-en-3-yl)phenyl]-1,1,1-trifluoromethanesulfonamide], for which the pest or weed control at 125 g/ha in experiment [1] (setting [11]) was found to be 60%; in the experiment on kochia (Bassia scoparia) (setting [12]), 20%; in experiment [2] (setting [13]) it was 100%. In addition, the pest or weed control at 500 g/ha in experiment [1] (setting [9]) came to 80%; in the experiment on kochia (Bassia scoparia) (setting [10]), 60%; in experiment [2] (setting [8]) it was 100%. This molecule also yielded a Corn plant response rating (crop injury, 0 = no effect, 100 = complete kill) at 125 g/ha in the experiment with corn (Zea mays) of 20%. Moreover, the plant injury at 500 g/ha in the experiment on corn (Zea mays) amounted to 70%.
In turn, `Cc1cc(Cl)c(NS(=O)(=O)C(F)(F)F)cc1C(=O)N1CCC(F)(F)CC1` [Compound 229, N-[2-Chloro-5-[(4,4-difluoro-1-piperidinyl)carbonyl]-4-methylphenyl]-1,1,1-trifluoromethanesulfonamide] yielded a Corn plant response rating (crop injury, 0 = no effect, 100 = complete kill) at 125 g/ha with corn (Zea mays) of 20%. Moreover, in the experiment on corn (Zea mays), the plant injury at 500 g/ha was 70%. Besides, the results for the pest or weed control at 125 g/ha (in the experiment with kochia (Bassia scoparia) (setting [12]); in experiment [2] (setting [13])) were 60% and 100%, respectively. Moreover, the pest or weed control at 500 g/ha came to 90% in the experiment on kochia (Bassia scoparia) (setting [10]) and 100% in experiment [2] (setting [7]).
For `Cc1cc(C)c(C(=O)N2CCC(F)(F)CC2)cc1NS(=O)(=O)C(F)(F)F` [Compound 241, N-[5-[(4,4-Difluoro-1-piperidinyl)carbonyl]-2,4-dimethylphenyl]-1,1,1-trifluoromethanesulfonamide], the pest or weed control at 125 g/ha in experiment [1] (setting [11]) is 60%; with kochia (Bassia scoparia) (setting [12]), 60%; in experiment [2] (setting [13]) it was 100%. Also, the results for the pest or weed control at 500 g/ha (in experiment [1] (setting [3]); in the experiment with kochia (Bassia scoparia) (setting [5]); in experiment [2] (setting [7])) were 90%, 90% and 100%, respectively. In the experiment on corn (Zea mays), this molecule registered a Corn plant response rating (crop injury, 0 = no effect, 100 = complete kill) at 125 g/ha of 10%. Besides, the Corn plant response rating (crop injury, 0 = no effect, 100 = complete kill) at 500 g/ha with corn (Zea mays) (visual injury approx. 10 days) came out at 20%.

Values taken from patent US20230278972A1, “SUBSTITUTED HALOALKYL SULFONANILIDE HERBICIDES” (FMC Corporation, priority 2020, published 2023).
